biological target: T1, Peptide deformylase (Staphylococcus aureus subsp. aureus Mu50, UniProt P68825); test: Inhibitory activity towards Ni-peptide deformylase of Staphylococcus aureus
T1 sequence (P68825 whole entry): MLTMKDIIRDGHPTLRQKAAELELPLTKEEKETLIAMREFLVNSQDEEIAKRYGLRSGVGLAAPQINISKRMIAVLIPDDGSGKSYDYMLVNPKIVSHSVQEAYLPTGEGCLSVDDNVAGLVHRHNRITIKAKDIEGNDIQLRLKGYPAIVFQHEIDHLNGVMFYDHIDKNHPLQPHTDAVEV

SMILES | IC50 [µM]
NNC(=O)CC1Sc2ccccc2NC1=O (stereo not given) | 0.33
O=C1Nc2ccccc2SC1CNO (stereo not given) | > 2
CONC(=O)CC1Sc2ccccc2NC1=O (stereo not given) | 0.074
O=C(O)CC1Sc2ccccc2NC1=O (stereo not given) | > 2
O=C(CC1Sc2ccccc2N(CC(=O)N2CCCC2)C1=O)NO (stereo not given) | 0.397
O=C(CC1Sc2ccccc2N(CC(=O)Nc2cc(F)ccc2F)C1=O)NO (stereo not given) | 0.058
O=C(CC1C(=O)Nc2ccccc2S1(=O)=O)NO (stereo not given) | > 2
O=C(CC1Sc2ccccc2N(CC(=O)Nc2ccccn2)C1=O)NO (stereo not given) | 0.343
CON(C)C(=O)CC1Sc2ccccc2NC1=O (stereo not given) | > 2
O=C(CC1Cc2ccccc2N(CC2CC2)C1=O)NO (stereo not given) | 0.175
N#CCN1C(=O)C(CC(=O)NO)Sc2ccccc21 (stereo not given) | 0.515

Now from value to molecule:

IC50 [µM] | SMILES
< 0.005 | O=C(CC1Sc2ccccc2N(CCC2OCCO2)C1=O)NO (stereo not given)
0.041 | O=C(CC1Sc2ccccc2N(CC2CCC2)C1=O)NO (stereo not given)
< 0.005 | CCCCCN1C(=O)C(CC(=O)NO)Sc2ccccc21 (stereo not given)
< 0.005 | CCCCC[C@H](CC(=O)NO)C(=O)N[C@H](C(=O)N1CCC[C@H]1CO)C(C)C [ACTINONIN]
0.037 | CN1C(=O)C(CC(=O)NO)Sc2ccccc21 (stereo not given)
< 0.005 | O=C(CC1Sc2ccccc2N(CCc2ccccc2)C1=O)NO (stereo not given)
< 0.005 | O=C(CC1Sc2ccccc2NC1=O)NO (stereo not given)
0.018 | O=C(CC1Sc2ccccc2N(CC2CCCCO2)C1=O)NO (stereo not given)
< 0.005 | COCCN1C(=O)C(CC(=O)NO)Sc2ccccc21 (stereo not given)
< 0.005 | CC(C)CCCN1C(=O)C(CC(=O)NO)Sc2ccccc21 (stereo not given)
0.05 | CC(C)(C)C(=O)CN1C(=O)C(CC(=O)NO)Sc2ccccc21 (stereo not given)
0.012 | O=C(CC1Sc2ccccc2N(Cc2ccccc2)C1=O)NO (stereo not given)
< 0.005 | CC(C)CCN1C(=O)C(CC(=O)NO)Sc2ccccc21 (stereo not given)
0.057 | O=C(CC1Sc2ccccc2N(CCC2CCCCC2)C1=O)NO (stereo not given)
